# Source: patent US6924309B2 (Children, Youth and Women's Health Service Incorporated, priority 1999, dated 2005)
# Where two headings read alike, the source gives them in different places.
# What was measured:
# [1] = tested on: Plasmodium falciparum isolates 3D7, FC27, K+; experiment: Radiometric (3H-hypoxanthine) assay on asexual blood stages of P. falciparum; format: cell-based; conditions: for EC50: Plasmodium falciparum, read-out: EC50 against P. falciparum
# Description: Using the radiometric assay^(36), the effects of the Lx compounds were examined for antimalarial activity. The Plasmodium falciparum isolates used were 3D7, FC27, K^1 and K^+. These were maintained in human blood group O^+ erythrocytes essentially as described previously using RPM-1640 (HEPES modification) supplemented with 0.25% D-glucose, 0.2% Tess buffer (Sigma Chemical Co, Lt Louis, Mo.) and 10% heat inactivated (56° C., 20 min) human blood group AB serum. Cultures were maintained in tissue culture flasks (Corning, N.Y.) at 37° C. under an atmosphere of 1% 2, 5% CO2 in N2. P. falciparum cultures containing approximately 3.0:% parasitaemia were adjusted to 1×10^8 erythrocytes/ml. To 50 μl of the parasite-erythrocyte culture (5×10^6 erythrocytes) in wells of 96-well microdilution plates wvas added 50 μl of the designated concentration of fatty acid or equivalent amounts of solutions or media. The treated cultures were incubated at 37° C. for 4 h and then pulsed with 50 μl (2.5 μCi) of ^3H-hypoxanthine. After a further 18 h incubation the parasites-erythrocytes were harvested onto glass fibre filter papers using a cell harvester. The amount of radioactivity incorporated was measured in a β-counter. The results have been expressed as % inhibition of parasite growth i.e. the dpm in the fatty acid diluent−dpm in the fatty acid treated cultures/dpm in diluent×100.
# [2] = Thin film autoxidation of arachidonic acid with compounds 16-19 (HPLC)
# Description: Subsequently, the autoxidation of compounds 16-19 and their effects on the autoxidation of arachidonic acid were investigated. In these experiments, a thin film assay method was employed. For each reaction, arachidonic acid was mixed with one of the synthetic compounds 16, 17, 18 or 19 at 1:1 ratio with or without the radical initiator, azobisisobutyronitrile (AIBN). A reverse phase HPLC method was used to simultaneously measure the relative amounts of arachidonic acid and the synthetic compounds 16, 17, 18 or 19 recovered following 60 or 70 hours or 7 days of thin film autoxidation.
# [3] = Petri-dish thin film autoxidation of arachidonic acid with thia fatty acids and sulfides (HPLC)
# Description: A stock solution in dichioromethane (2 ml) containing arachidonic acid 1 (18 mg) and 3-[(3Z,6Z)-nona-3,6dienylthio]propionic acid 106 (18 mg) was prepared with lauric acid (18 mg) as an internal standard. Samples of the stock solution (100 μl) were added to glass Petri-dishes followed by ethanol (400 μl). After evaporation of the solvent, a well-distributed thin film was formed on each Petri-dish. The Petri-dishes were placed in a desiccator, which was then evacuated, filled with oxygen and stored in the darkness. Dishes were removed from the desiccator after 1, 2, 3, 5 and 7 days. The mixture on each dish was redissolved in diethyl ether and transferred to a 2 ml vial. After evaporation of the solvent, the residue was dissolved in the HPLC mobile phase (100 μl) and 10% of the solution was analysed by HPLC using a reverse phase column (octadecylsilane) (4.6 mm×250 mm, 3 μm) and a refractive index detector.
# Autoxidation of arachidonic acid was conducted in the presence of compound 19 and lauric acid. Stock solutions of arachidonic acid, compound 19 and lauric acid in dichloromethane with equal concentrations were added to a 25 ml round-bottomed flask, and the solvent was evaporated to leave a thin film on the internal surface of the flask. The flask was then filled with oxygen and kept in the dark. The percentages of arachidonic acid and compound 19 remaining after 7 days were measured by HPLC. The same assay was carried out simultaneously with several flasks but the results were not reproducible. The variation was attributed to differences in oxygen concentration and the surface area of the thin films formed in the flasks. Therefore, in order to establish a reproducible assay for the analysis of the autoxidation of arachidonic acid, Petri-dishes with uniform size (80 mm in diameter) were used instead of flasks for thin film formation and the oxidation was carried out by placing the Petri-dishes in a dessicator filled with oxygen. To assess this method, thin firms of arachidonic acid with lauric acid as a standard were prepared on six Petri-dishes using identical treatment, and then subjected to oxidation in the same dessicator filled with oxygen. After 24 h, the percentage of arachidonic acid recovered following autoxidation in each Petri-dish was determined by HPLC. […] The advantage of using a Petri-dish over a flask is that the thin films on each Petri-dish are spread over the same area, and each Petri-dish is exposed to oxygen to the same extent.
# Using the Petri-dish assay method, the effects of the thia PUFAs and sulfides 106 and 108-111, along with compounds 18, 19 and 3-[(Z,Z,Z)-(octadeca-9,12,15-trienylthio)] propionic acid 112 which were available in the laboratory, on the autoxidation of arachidonic acid, were examined. In addition, the stability of these compounds in the presence of arachidonic acid was also investigated. Arachidonic acid and lauric acid as a standard were mixed with each sulfur compound at different ratios and the mixtures were subjected to thin film autoxidation. The mixtures were analysed by HPLC after 1,2,3,5 and 7 days.
# [4] = target: T1, 15-LO (Glycine max, UniProt P08170); experiment: Effect on 15-LO catalysed oxidation of arachidonic acid; format: biochemical, soybean
# T1 construct: purchased Sigma Chemical Company
# T1 sequence (P08170 1-839): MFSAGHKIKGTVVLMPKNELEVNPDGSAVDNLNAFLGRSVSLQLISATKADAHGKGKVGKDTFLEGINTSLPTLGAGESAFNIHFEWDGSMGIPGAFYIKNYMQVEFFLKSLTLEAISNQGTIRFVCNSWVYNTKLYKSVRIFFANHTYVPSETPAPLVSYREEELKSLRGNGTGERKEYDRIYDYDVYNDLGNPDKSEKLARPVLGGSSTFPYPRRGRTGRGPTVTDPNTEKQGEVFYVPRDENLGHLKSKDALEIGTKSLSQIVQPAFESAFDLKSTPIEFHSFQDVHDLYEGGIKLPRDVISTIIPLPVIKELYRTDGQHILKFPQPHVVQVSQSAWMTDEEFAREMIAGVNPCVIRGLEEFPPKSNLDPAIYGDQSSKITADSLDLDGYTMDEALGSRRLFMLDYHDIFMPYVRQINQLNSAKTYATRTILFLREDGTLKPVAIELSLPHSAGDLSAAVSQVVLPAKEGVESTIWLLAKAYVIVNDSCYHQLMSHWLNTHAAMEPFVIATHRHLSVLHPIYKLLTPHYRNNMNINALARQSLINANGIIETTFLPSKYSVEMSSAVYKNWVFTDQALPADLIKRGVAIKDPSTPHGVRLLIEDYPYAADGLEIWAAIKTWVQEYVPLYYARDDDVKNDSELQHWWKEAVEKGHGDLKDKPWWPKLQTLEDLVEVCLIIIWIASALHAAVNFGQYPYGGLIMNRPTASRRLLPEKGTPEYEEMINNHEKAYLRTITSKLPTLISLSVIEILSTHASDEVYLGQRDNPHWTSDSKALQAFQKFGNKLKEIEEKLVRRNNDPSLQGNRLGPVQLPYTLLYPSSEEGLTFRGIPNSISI
# [5] = ratio 2:1, with AIBN at 10% the amount of arachidonic acid, 1 day
# [6] = ratio 2:1, with AIBN at 10% the amount of arachidonic acid, 2 days
# [7] = ratio 2:1, with AIBN at 10% the amount of arachidonic acid, 3 days
# [8] = ratio 2:1, with AIBN at 10% the amount of arachidonic acid, 5 days
# [9] = ratio 2:1, with AIBN at 10% the amount of arachidonic acid, 7 days
# [10] = ratio arachidonic acid:compound 1:1, 1 day
# [11] = ratio arachidonic acid:compound 1:1, 2 days
# [12] = ratio arachidonic acid:compound 1:1, 3 days
# [13] = ratio arachidonic acid:compound 1:1, 5 days
# [14] = ratio arachidonic acid:compound 1:1, 7 days
# [15] = ratio arachidonic acid:compound 2:1, 1 day
# [16] = ratio arachidonic acid:compound 2:1, 2 days
# [17] = ratio arachidonic acid:compound 2:1, 3 days
# [18] = ratio arachidonic acid:compound 2:1, 5 days
# [19] = ratio arachidonic acid:compound 2:1, 7 days
# [20] = ratio arachidonic acid:compound 10:1, 1 day
# [21] = ratio arachidonic acid:compound 10:1, 2 days
# [22] = ratio arachidonic acid:compound 10:1, 3 days
compound,measurement,setting,value
"CC/C=C\C/C=C\C/C=C\C/C=C\C/C=C\C/C=C\CCC(=O)O [22:6n-3, docosahexaenoic acid, reference compound]",EC50,"[1]; 3D7, isolate FC27",12 µg/mL
same,EC50,"[1]; 3D7, isolate K+",4 µg/mL
same,Reduction of antimalarial activity by human serum,"[1]; compound 20 μg/ml, presence of human serum",85%
CCCCC/C=C\C/C=C\C/C=C\C/C=C\CCCCSCCC(=O)O [Compound 19],Percentage of arachidonic acid recovered in the presence of the compound,"[2]; ratio 1:1, 10% AIBN 60 h",100%
same,Percentage of compound recovered (with arachidonic acid),"[2]; ratio 1:1, 10% AIBN 60 h",96%
same,Percentage of arachidonic acid recovered in the presence of the compound,"[2]; ratio 1:1, no additive 70 h",101%
same,Percentage of compound recovered (with arachidonic acid),"[2]; ratio 1:1, no additive 70 h",98%
same,Percentage of arachidonic acid recovered in the presence of the compound,"[2]; ratio 1:1, no additive 7 day",102%
same,Percentage of compound recovered (with arachidonic acid),"[2]; ratio 1:1, no additive 7 day",96%
same,Autoxidation of arachidonic acid in the presence of the compound (in words),"[2]; ratio 1:1, with or without AIBN",completely inhibited
same,Antioxidant effect on autoxidation of arachidonic acid (in words),[3],effective antioxidants
same,Antioxidant effect on autoxidation of arachidonic acid (in words),[3]; 1:1 ratio with arachidonic acid,almost complete prevention of autoxidation
same,Antioxidant effect on autoxidation of arachidonic acid (in words),[3]; compound at one-tenth that of arachidonic acid,very slow over the first 3 days
same,Arachidonic acid (%) recovered following autoxidation in the presence of the compound,[3]; [5],100%
same,Compound (%) recovered following autoxidation with arachidonic acid,[3]; [5],98%
same,Arachidonic acid (%) recovered following autoxidation in the presence of the compound,[3]; [6],98%
same,Compound (%) recovered following autoxidation with arachidonic acid,[3]; [6],95%
same,Arachidonic acid (%) recovered following autoxidation in the presence of the compound,[3]; [7],94%
same,Compound (%) recovered following autoxidation with arachidonic acid,[3]; [7],80%
same,Arachidonic acid (%) recovered following autoxidation in the presence of the compound,[3]; [8],49%
same,Compound (%) recovered following autoxidation with arachidonic acid,[3]; [8],47%
same,Arachidonic acid (%) recovered following autoxidation in the presence of the compound,[3]; [9],35%
same,Compound (%) recovered following autoxidation with arachidonic acid,[3]; [9],43%
same,Arachidonic acid (%) recovered following autoxidation in the presence of the compound,[3]; [10],99%
same,Compound (%) recovered following autoxidation with arachidonic acid,[3]; [10],99%
same,Arachidonic acid (%) recovered following autoxidation in the presence of the compound,[3]; [11],100%
same,Compound (%) recovered following autoxidation with arachidonic acid,[3]; [11],100%
same,Arachidonic acid (%) recovered following autoxidation in the presence of the compound,[3]; [12],99%
same,Compound (%) recovered following autoxidation with arachidonic acid,[3]; [12],99%
same,Arachidonic acid (%) recovered following autoxidation in the presence of the compound,[3]; [13],99%
same,Compound (%) recovered following autoxidation with arachidonic acid,[3]; [13],98%
same,Arachidonic acid (%) recovered following autoxidation in the presence of the compound,[3]; [14],98%
same,Compound (%) recovered following autoxidation with arachidonic acid,[3]; [14],99%
same,Arachidonic acid (%) recovered following autoxidation in the presence of the compound,[3]; [15],100%
same,Compound (%) recovered following autoxidation with arachidonic acid,[3]; [15],98%
same,Arachidonic acid (%) recovered following autoxidation in the presence of the compound,[3]; [16],99%
same,Compound (%) recovered following autoxidation with arachidonic acid,[3]; [16],96%
same,Arachidonic acid (%) recovered following autoxidation in the presence of the compound,[3]; [17],100%
same,Compound (%) recovered following autoxidation with arachidonic acid,[3]; [17],96%
same,Arachidonic acid (%) recovered following autoxidation in the presence of the compound,[3]; [18],98%
same,Compound (%) recovered following autoxidation with arachidonic acid,[3]; [18],94%
same,Arachidonic acid (%) recovered following autoxidation in the presence of the compound,[3]; [19],97%
same,Compound (%) recovered following autoxidation with arachidonic acid,[3]; [19],90%
same,Arachidonic acid (%) recovered following autoxidation in the presence of the compound,[3]; [20],99%
same,Compound (%) recovered following autoxidation with arachidonic acid,[3]; [20],95%
same,Arachidonic acid (%) recovered following autoxidation in the presence of the compound,[3]; [21],99%
same,Compound (%) recovered following autoxidation with arachidonic acid,[3]; [21],87%
same,Arachidonic acid (%) recovered following autoxidation in the presence of the compound,[3]; [22],87%
same,Compound (%) recovered following autoxidation with arachidonic acid,[3]; [22],38%
same,Arachidonic acid (%) recovered following autoxidation in the presence of the compound,"[3]; ratio arachidonic acid:compound 10:1, 5 days",42%
same,Arachidonic acid (%) recovered following autoxidation in the presence of the compound,"[3]; ratio arachidonic acid:compound 10:1, 7 days",17%
"CC/C=C\C/C=C\C/C=C\C/C=C\C/C=C\C/C=C\CCC[N+](=O)[O-] [Lx5, (a11-z)-1-Nitro-4,7,10,13,16,19-docosahexaene]",Effect on 15-LO catalysed oxidation of AA,[4],Nil
